Assay [1] has as its target Mcl-1 (Homo sapiens (Human), UniProt Q07820). Kind of assay: Fluorescence polarization anisotropy (FPA) competition assay, FITC-Bak or FITC-Bim BH3 peptide. The class given is binding. The conditions noted are these: read-out: Ki for Inhibition of Mcl-1 by FPA assay. On the technique in general: Polarisation of emitted light reports the rotation of a fluorescent probe.
Assay [2] has as its system H929 human cancer cell lines. Kind of assay: Cellular viability / proliferation (Cell TiterGlo, 72 h). In kind it is cell-based. An outline of the steps: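 1,000 cells/well, 10% FBS medium; compound added at 24 h, 2-fold dilutions from 50 μM top, DMSO <1% final. 72 h exposure, CellTiterGlo 30 min RT dark, luminescence read. IC50 by 4-parameter fit.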
Where [3] appears, read: Homo sapiens, NCI-H929, 72 h, read-out: GI50 on cellular proliferation of H929 human cancer cell lines, H929 cells, 72 h, Cell TiterGlo, 10% FBS.

What is called Ki is the dissociation constant of the complex between target and ligand, obtained from inhibition or displacement.

Where two headings read alike, the source gives them in different places.

Mcl-1, sequence (Q07820 172-327): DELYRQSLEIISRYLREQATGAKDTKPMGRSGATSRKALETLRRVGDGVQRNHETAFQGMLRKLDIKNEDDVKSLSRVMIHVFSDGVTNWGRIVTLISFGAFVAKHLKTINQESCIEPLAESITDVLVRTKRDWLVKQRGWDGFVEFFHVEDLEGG

Consider `Cc1cc(N2C[C@@H](C)n3c(c(CCCOc4cc(C)c(Cl)c(C)c4)c4ccc(Cl)c(-c5c(C)nc(CN6CCN(C)CC6)nc5C)c43)C2=O)c2c(c1)cc(C(=O)O)n2C` [Example 426, (R)-7-(7-Chloro-10-(3-(4-chloro-3,5-dimethylphenoxy)propyl)-6-(4,6-dimethyl-2-((4-methylpiperazin-1-yl)methyl)pyrimidin-5-yl)-4-methyl-1-oxo-3,4-dihydropyrazino[1,2-a]indol-2(1H)-yl)-1,5-dimethyl-1H-indole-2-carboxylic acid], for which the Ki in assay [1] was below 0.001 µM. Further, the GI50 in assay [2] (setting [3]) was determined as 0.25 µM.

As for `Cc1cc(OCCCc2c3n(c4c(-c5c(C)nn(C)c5C)c(Cl)ccc24)[C@H](C)CN(c2cn(C)c4ccc(C(=O)NNc5ccccc5)cc24)C3=O)cc(C)c1Cl` [Example 427, (R)-3-(7-Chloro-10-(3-(4-chloro-3,5-dimethylphenoxy)propyl)-4-methyl-1-oxo-6-(1,3,5-trimethyl-1H-pyrazol-4-yl)-3,4-dihydropyrazino[1,2-a]indol-2(1H)-yl)-1-methyl-N′-phenyl-1H-indole-5-carbohydrazide], the Ki in assay [1] was determined as 0.0012 µM. Besides, the GI50 in assay [2] (setting [3]) was 0.49 µM.

For `Cc1cc(OCCCc2c3n(c4c(-c5c(C)nn(C)c5C)c(Cl)ccc24)[C@H](C)CN(c2cn(C)c4ccc(C5=NCCO5)cc24)C3=O)cc(C)c1Cl` [Example 428, (R)-7-Chloro-10-(3-(4-chloro-3,5-dimethylphenoxy)propyl)-2-(5-(4,5-dihydrooxazol-2-yl)-1-methyl-1H-indol-3-yl)-4-methyl-6-(1,3,5-trimethyl-1H-pyrazol-4-yl)-3,4-dihydropyrazino[1,2-a]indol-1(2H)-one], the Ki in assay [1] came to 0.002 µM. Further, the GI50 in assay [2] (setting [3]) was 0.92 µM.

For `Cc1nc(-c2ccc3c(c2)c(N2C[C@@H](C)n4c(c(CCCOc5cc(C)c(Cl)c(C)c5)c5ccc(Cl)c(-c6c(C)nn(C)c6C)c54)C2=O)cn3C)no1` [Example 429, (R)-7-Chloro-10-(3-(4-chloro-3,5-dimethylphenoxy)propyl)-4-methyl-2-(1-methyl-5-(5-methyl-1,2,4-oxadiazol-3-yl)-1H-indol-3-yl)-6-(1,3,5-trimethyl-1H-pyrazol-4-yl)-3,4-dihydropyrazino[1,2-a]indol-1(2H)-one], the Ki in assay [1] is 0.0018 µM. Also, the GI50 in assay [2] (setting [3]) came out at 0.97 µM.

Consider `Cc1cc(OCCCc2c3n(c4c(-c5c(C)nn(C)c5C)c(Cl)ccc24)[C@H](C)CN(c2cn(C)c4ccc(-c5cnccn5)cc24)C3=O)cc(C)c1Cl` [Example 430, (R)-7-Chloro-10-(3-(4-chloro-3,5-dimethylphenoxy)propyl)-4-methyl-2-(1-methyl-5-(pyrazin-2-yl)-1H-indol-3-yl)-6-(1,3,5-trimethyl-1H-pyrazol-4-yl)-3,4-dihydropyrazino[1,2-a]indol-1(2H)-one], for which the Ki in assay [1] came to 0.0019 µM. Further, the GI50 in assay [2] (setting [3]) was 1.4 µM.

With `Cc1cc(OCCCc2c3n(c4c(-c5c(C)nc(CN6CCN(C)C(=O)C6)nc5C)c(Cl)ccc24)[C@H](C)CN(c2cn(C)c4ccc(C(=O)O)cc24)C3=O)cc(C)c1Cl` [Example 432, (R)-3-(7-Chloro-10-(3-(4-chloro-3,5-dimethylphenoxy)propyl)-6-(4,6-dimethyl-2-((4-methyl-3-oxopiperazin-1-yl)methyl)pyrimidin-5-yl)-4-methyl-1-oxo-3,4-dihydropyrazino[1,2-a]indol-2(1H)-yl)-1-methyl-1H-indole-5-carboxylic acid], the Ki in assay [1] is below 0.001 µM. Also, the GI50 in assay [2] (setting [3]) worked out at 0.21 µM.

Take `CC(=O)N1CCN(Cc2nc(C)c(-c3c(Cl)ccc4c(CCCOc5cc(C)c(Cl)c(C)c5)c5n(c34)[C@H](C)CN(c3cn(C)c4ccc(C(=O)O)cc34)C5=O)c(C)n2)CC1` [Example 433, (R)-3-(6-(2-((4-Acetylpiperazin-1-yl)methyl)-4,6-dimethylpyrimidin-5-yl)-7-chloro-10-(3-(4-chloro-3,5-dimethylphenoxy)propyl)-4-methyl-1-oxo-3,4-dihydropyrazino[1,2-a]indol-2(1H)-yl)-1-methyl-1H-indole-5-carboxylic acid]: in assay [1], the Ki turned out to be 0.0017 µM. The GI50 in assay [2] (setting [3]) was 0.44 µM.

On to `Cc1cc(OCCCc2c3n(c4c(-c5c(C)nn(C)c5C)c(Cl)ccc24)[C@H](C)CN(c2cccc4cc5n(c24)CCNC5=O)C3=O)cc(C)c1Cl` [Example 434, (R)-7-Chloro-10-(3-(4-chloro-3,5-dimethylphenoxy)propyl)-4-methyl-6-(1,3,5-trimethyl-1H-pyrazol-4-yl)-3,3′,4,4′-tetrahydro-1H-[2,6′-bipyrazino[1,2-a]indole]-1,1′(2′H)-dione], for which the Ki in assay [1] is 0.0055 µM. For the same compound, the GI50 in assay [2] (setting [3]) amounted to 0.89 µM.

For the compound `Cc1cc(OCCCc2c3n(c4c(-c5c(C)nn(C)c5C)c(Cl)ccc24)[C@H](C)CN(c2ccc(Cl)c4c(C(=O)O)cn(C)c24)C3=O)cc(C)c1Cl` [Example 435, (R)-4-Chloro-7-(7-chloro-10-(3-(4-chloro-3,5-dimethylphenoxy)propyl)-4-methyl-1-oxo-6-(1,3,5-trimethyl-1H-pyrazol-4-yl)-3,4-dihydropyrazino[1,2-a]indol-2(1H)-yl)-1-methyl-1H-indole-3-carboxylic acid], the Ki in assay [1] is below 0.001 µM. Further, the GI50 in assay [2] (setting [3]) came to 0.57 µM.

Turning to `COc1cc(N2C[C@@H](C)n3c(c(CCCOc4cc(C)c(Cl)c(C)c4)c4ccc(Cl)c(-c5c(C)nn(C)c5C)c43)C2=O)c2c(c1)c(C(=O)O)cn2C` [Example 436, (R)-7-(7-Chloro-10-(3-(4-chloro-3,5-dimethylphenoxy)propyl)-4-methyl-1-oxo-6-(1,3,5-trimethyl-1H-pyrazol-4-yl)-3,4-dihydropyrazino[1,2-a]indol-2(1H)-yl)-5-methoxy-1-methyl-1H-indole-3-carboxylic acid], the inhibitory constant (Ki) in assay [1] came to 0.0021 µM. Moreover, the GI50 in assay [2] (setting [3]) amounted to 0.51 µM.

On to `Cc1cc(OCCCc2c3n(c4c(-c5c(C)nc(CNC6CCN(C)CC6)nc5C)c(Cl)ccc24)[C@H](C)CN(c2cn(C)c4ccc(C(=O)O)cc24)C3=O)cc(C)c1Cl` [Example 437, (R)-3-(7-Chloro-10-(3-(4-chloro-3,5-dimethylphenoxy)propyl)-6-(4,6-dimethyl-2-(((1-methylpiperidin-4-yl)amino)methyl)pyrimidin-5-yl)-4-methyl-1-oxo-3,4-dihydropyrazino[1,2-a]indol-2(1H)-yl)-1-methyl-1H-indole-5-carboxylic acid], for which, in assay [1], the Ki stood at 0.0047 µM. Besides, in assay [2] (setting [3]), the GI50 came out at 1.2 µM.

`Cc1cc(OCCCc2c3n(c4c(-c5c(C)nn(C)c5C)c(Cl)ccc24)[C@H](C)CN(c2ccc(F)c4c(C(=O)O)c[nH]c24)C3=O)cc(C)c1Cl` [Example 438, (R)-7-(7-Chloro-10-(3-(4-chloro-3,5-dimethylphenoxy)propyl)-4-methyl-1-oxo-6-(1,3,5-trimethyl-1H-pyrazol-4-yl)-3,4-dihydropyrazino[1,2-a]indol-2(1H)-yl)-4-fluoro-1H-indole-3-carboxylic acid]: in assay [1], the Ki was determined as 0.0011 µM. For the same compound, in assay [2] (setting [3]), the GI50 was 2.8 µM.

With `COCCN1CCN(Cc2nc(C)c(-c3c(Cl)ccc4c(CCCOc5cc(C)c(Cl)c(C)c5)c5n(c34)[C@H](C)CN(c3cn(C)c4ccc(C(=O)O)cc34)C5=O)c(C)n2)CC1` [Example 439, (R)-3-(7-Chloro-10-(3-(4-chloro-3,5-dimethylphenoxy)propyl)-6-(2-((4-(2-methoxyethyl)piperazin-1-yl)methyl)-4,6-dimethylpyrimidin-5-yl)-4-methyl-1-oxo-34-dihydropyrazino[1,2-a]indol-2(1H)-yl)-1-methyl-1H-indole-5-carboxylic acid], the Ki in assay [1] came out at 0.0019 µM. Further, the GI50 in assay [2] (H929 cells, 72 h, Cell TiterGlo, 10% FBS, read-out: GI50 on cellular proliferation of H929 human cancer cell lines) is below 0.2 µM.

On to `Cc1cc(OCCCc2c3n(c4c(-c5c(C)nc(CN6CCNCC6)nc5C)c(Cl)ccc24)[C@H](C)CN(c2cn(C)c4ccc(C(=O)O)cc24)C3=O)cc(C)c1Cl` [Example 441, (R)-3-(7-Chloro-10-(3-(4-chloro-3,5-dimethylphenoxy)propyl)-6-(4,6-dimethyl-2-(piperazin-1-ylmethyl)pyrimidin-5-yl)-4-methyl-1-oxo-3,4-dihydropyrazino[1,2-a]indol-2(1H)-yl)-1-methyl-1H-indole-5-carboxylic acid], for which the Ki in assay [1] was 0.007 µM. Further, in assay [2] (setting [3]), the GI50 came to 4.6 µM.

Consider `Cc1cc(OCCCc2c3n(c4c(-c5c(C)nn(C)c5C)c(Cl)ccc24)[C@H](C)CN(c2cn(C)c4ccc(-c5noc(=O)[nH]5)cc24)C3=O)cc(C)c1Cl` [Example 442, (R)-3-(3-(7-Chloro-10-(3-(4-chloro-3,5-dimethylphenoxy)propyl)-4-methyl-1-oxo-6-(1,3,5-trimethyl-1H-pyrazol-4-yl)-3,4-dihydropyrazino[1,2-a]indol-2(1H)-yl)-1-methyl-1H-indol-5-yl)-1,2,4-oxadiazol-5(4H)-one], for which the Ki in assay [1] is 0.0023 µM. Besides, the GI50 in assay [2] (setting [3]) was 0.23 µM.

With `Cc1cc(OCCCc2c3n(c4c(-c5c(C)nn(C)c5C)c(Cl)ccc24)[C@H](C)CN(c2cn(C)c4ccc(-c5n[nH]c(=O)o5)cc24)C3=O)cc(C)c1Cl` [Example 444, (R)-5-(3-(7-Chloro-10-(3-(4-chloro-3,5-dimethylphenoxy)propyl)-4-methyl-1-oxo-6-(1,3,5-trimethyl-1H-pyrazol-4-yl)-3,4-dihydropyrazino[1,2-a]indol-2(1H)-yl)-1-methyl-1H-indol-5-yl)-1,3,4-oxadiazol-2(3H)-one], in assay [1], the Ki turned out to be 0.0013 µM. For the same compound, the GI50 in assay [2] (setting [3]) amounted to 0.22 µM.

Consider `COc1ccc(N2C[C@@H](C)n3c(c(CCCOc4cc(C)c(Cl)c(C)c4)c4ccc(Cl)c(-c5c(C)nn(C)c5C)c43)C2=O)c2c1c(C(=O)O)cn2C` [Example 445, (R)-7-(7-Chloro-10-(3-(4-chloro-3,5-dimethylphenoxy)propyl)-4-methyl-1-oxo-6-(1,3,5-trimethyl-1H-pyrazol-4-yl)-3,4-dihydropyrazino[1,2-a]indol-2(1H)-yl)-4-methoxy-1-methyl-1H-indole-3-carboxylic acid], for which, in assay [1], the Ki worked out at 0.0022 µM. Further, in assay [2] (setting [3]), the GI50 was determined as 0.82 µM.

For the origin of these results see US11596639B2, “Substituted indole Mcl-1 inhibitors” (Vanderbilt University, priority 2016, dated 2023).
